{"source": "ChEMBL document CHEMBL1201862", "about": "“PubChem BioAssay data set” (2004)", "key": {"[1]": {"target": "T1, Ubiquitin-conjugating enzyme E2 N (Homo sapiens, UniProt P61088)", "T1 sequence (P61088 whole entry)": "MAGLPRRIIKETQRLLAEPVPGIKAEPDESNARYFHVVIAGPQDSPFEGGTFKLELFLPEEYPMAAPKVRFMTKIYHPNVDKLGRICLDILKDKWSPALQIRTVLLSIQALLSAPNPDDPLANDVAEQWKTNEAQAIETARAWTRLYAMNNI", "format": "functional"}, "INS1": {"system": "INS1", "assay": "INS-1E survival protection against cytokine death – cell-based, luminescence, retest, dose response (AID 449756);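 note: cell death triggered by IL-1 beta plus TNF-alpha plus IFN-gamma mixture; protective hits raise ATP signal compared with cytokine alone wells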", "format": "functional", "conditions": "Rattus norvegicus"}, "[2]": {"assay": "Luminescence Cell-Based Dose Retest to Confirm Inhibitors of Cancer Stem Cells. [Related pubchem assays (depositor defined):AID2717, AID2721]", "format": "functional", "conditions": "Homo sapiens"}, "Integrin alpha-4": {"target": "Integrin alpha-4 (Homo sapiens, UniProt P13612)", "sequence (P13612 whole entry)": "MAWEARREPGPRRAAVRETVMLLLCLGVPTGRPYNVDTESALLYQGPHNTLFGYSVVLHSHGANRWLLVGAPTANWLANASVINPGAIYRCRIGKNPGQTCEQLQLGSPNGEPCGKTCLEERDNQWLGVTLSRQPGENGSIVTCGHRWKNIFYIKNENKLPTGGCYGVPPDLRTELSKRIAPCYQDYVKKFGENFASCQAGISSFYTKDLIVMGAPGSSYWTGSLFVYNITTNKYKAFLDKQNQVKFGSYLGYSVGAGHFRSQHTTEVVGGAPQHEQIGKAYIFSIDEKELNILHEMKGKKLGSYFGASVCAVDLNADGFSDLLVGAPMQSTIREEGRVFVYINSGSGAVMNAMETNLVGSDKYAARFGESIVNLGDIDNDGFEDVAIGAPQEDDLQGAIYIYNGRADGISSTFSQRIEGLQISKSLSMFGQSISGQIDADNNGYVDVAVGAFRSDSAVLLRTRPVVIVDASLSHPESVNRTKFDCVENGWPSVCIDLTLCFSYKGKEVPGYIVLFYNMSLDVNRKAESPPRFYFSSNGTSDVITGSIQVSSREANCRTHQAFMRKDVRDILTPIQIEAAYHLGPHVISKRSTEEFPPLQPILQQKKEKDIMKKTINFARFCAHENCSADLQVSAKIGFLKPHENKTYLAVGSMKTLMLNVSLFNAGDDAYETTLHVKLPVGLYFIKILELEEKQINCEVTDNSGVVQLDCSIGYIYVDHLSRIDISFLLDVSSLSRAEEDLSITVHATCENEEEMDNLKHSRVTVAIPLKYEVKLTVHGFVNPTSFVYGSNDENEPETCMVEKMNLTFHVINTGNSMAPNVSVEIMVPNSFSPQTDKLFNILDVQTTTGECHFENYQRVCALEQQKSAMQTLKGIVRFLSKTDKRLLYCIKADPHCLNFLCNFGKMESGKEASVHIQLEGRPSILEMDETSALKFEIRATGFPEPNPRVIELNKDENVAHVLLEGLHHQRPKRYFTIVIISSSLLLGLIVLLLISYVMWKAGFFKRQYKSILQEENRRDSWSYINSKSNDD", "assay": "allosteric modulators of alpha4 integrin VLA-4 – cell-based, LIBS antibody binding, flow cytometry, SAR follow-up (AID 488791)", "format": "functional"}, "Melanocortin receptor 4": {"target": "Melanocortin receptor 4 (Homo sapiens, UniProt P32245)", "sequence (P32245 whole entry)": "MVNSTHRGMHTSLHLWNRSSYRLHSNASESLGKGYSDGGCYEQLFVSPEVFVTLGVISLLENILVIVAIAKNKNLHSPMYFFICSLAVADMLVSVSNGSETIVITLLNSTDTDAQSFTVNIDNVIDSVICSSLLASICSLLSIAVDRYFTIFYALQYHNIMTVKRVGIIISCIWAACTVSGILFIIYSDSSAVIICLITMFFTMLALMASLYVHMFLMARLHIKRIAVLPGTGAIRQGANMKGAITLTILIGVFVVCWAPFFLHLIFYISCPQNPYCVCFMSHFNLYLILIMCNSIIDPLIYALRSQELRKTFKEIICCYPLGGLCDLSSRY", "format": "functional, cell-based"}, "Hexokinase": {"target": "Hexokinase (Trypanosoma brucei, UniProt Q38C41)", "sequence (Q38C41 whole entry)": "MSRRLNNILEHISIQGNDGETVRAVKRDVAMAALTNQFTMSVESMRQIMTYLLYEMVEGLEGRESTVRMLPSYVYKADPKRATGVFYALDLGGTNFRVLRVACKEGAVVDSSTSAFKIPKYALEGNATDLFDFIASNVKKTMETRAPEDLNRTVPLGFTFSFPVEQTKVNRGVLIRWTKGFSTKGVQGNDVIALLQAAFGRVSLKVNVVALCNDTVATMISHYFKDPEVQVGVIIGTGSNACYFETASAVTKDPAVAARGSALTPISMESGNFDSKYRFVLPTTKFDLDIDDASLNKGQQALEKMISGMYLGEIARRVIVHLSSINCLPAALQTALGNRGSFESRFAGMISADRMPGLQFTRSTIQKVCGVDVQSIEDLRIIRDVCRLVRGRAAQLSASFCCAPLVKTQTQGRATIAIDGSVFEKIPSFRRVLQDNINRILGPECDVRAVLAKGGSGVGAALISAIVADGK", "assay": "Confirmation assay for inhibitors of Trypanosoma brucei hexokinase 1-Analogue-first series. [Related pubchem assays (depositor defined):AID1430, AID1632, AID2516, AID2560, AID2579, AID2600, AID449725, AID492951]", "format": "functional"}, "[3]": {"target": "T2, Alkaline phosphatase, tissue-nonspecific isozyme (Homo sapiens, UniProt P05186)", "T2 sequence (P05186 whole entry)": "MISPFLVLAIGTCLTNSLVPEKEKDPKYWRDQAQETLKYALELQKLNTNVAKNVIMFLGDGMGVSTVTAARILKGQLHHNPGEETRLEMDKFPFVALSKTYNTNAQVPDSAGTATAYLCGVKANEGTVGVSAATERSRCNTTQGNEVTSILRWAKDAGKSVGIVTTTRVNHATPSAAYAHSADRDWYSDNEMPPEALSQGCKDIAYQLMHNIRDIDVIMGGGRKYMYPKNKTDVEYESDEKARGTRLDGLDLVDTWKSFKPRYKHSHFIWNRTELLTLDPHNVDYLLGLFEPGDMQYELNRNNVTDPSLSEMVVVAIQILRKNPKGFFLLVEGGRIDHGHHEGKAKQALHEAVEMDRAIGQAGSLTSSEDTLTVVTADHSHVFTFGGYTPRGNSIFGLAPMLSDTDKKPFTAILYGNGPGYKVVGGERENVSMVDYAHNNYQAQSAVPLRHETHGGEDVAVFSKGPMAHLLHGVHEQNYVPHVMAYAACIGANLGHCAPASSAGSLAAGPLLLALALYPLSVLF", "assay": "potency against alkaline phosphatase TNAP – biochemical, luminescent, dose response, SAR follow-up (AID 1056)"}, "[4]": {"target": "Glyceraldehyde-3-phosphate dehydrogenase (Homo sapiens, UniProt P04406)", "sequence (P04406 whole entry)": "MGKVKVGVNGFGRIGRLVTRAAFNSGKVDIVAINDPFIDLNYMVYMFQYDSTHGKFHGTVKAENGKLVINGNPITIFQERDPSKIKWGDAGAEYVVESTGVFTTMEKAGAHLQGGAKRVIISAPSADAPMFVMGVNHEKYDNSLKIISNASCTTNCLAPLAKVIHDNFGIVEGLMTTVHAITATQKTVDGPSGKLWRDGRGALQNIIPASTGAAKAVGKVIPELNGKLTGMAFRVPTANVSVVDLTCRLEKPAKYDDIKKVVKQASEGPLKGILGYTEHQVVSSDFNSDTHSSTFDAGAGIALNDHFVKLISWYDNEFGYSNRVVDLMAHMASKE"}, "[5]": {"target": "Alkaline phosphatase, placental type (Homo sapiens, UniProt P05187)", "sequence (P05187 whole entry)": "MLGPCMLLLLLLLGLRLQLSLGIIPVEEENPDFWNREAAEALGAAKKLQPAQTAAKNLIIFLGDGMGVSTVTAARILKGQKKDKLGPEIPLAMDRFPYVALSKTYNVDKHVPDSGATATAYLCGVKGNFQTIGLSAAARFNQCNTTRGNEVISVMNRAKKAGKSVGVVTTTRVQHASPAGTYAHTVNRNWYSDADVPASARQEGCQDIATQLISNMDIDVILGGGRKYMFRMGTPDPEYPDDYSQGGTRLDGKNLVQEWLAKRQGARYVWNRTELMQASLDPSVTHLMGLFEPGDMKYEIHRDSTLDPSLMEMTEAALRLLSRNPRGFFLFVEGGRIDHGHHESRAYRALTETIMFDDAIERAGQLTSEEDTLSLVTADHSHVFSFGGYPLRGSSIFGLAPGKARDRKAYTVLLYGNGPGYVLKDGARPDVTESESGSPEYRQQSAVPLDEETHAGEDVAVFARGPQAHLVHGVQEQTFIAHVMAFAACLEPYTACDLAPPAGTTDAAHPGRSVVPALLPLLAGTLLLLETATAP", "assay": "human placental alkaline phosphatase inhibition – biochemical, luminescence, confirmation (AID 1512)", "format": "functional"}, "[6]": {"target": "T3, Eukaryotic translation initiation factor 4H (Homo sapiens, UniProt Q15056)", "assay": "inhibitors of translation initiation factor eIF4H – SAR follow-up (AID 435011)", "format": "functional"}, "[7]": {"target": "T4, Polyadenylate-binding protein 1 (Homo sapiens, UniProt P11940)", "T4 sequence (P11940 whole entry)": "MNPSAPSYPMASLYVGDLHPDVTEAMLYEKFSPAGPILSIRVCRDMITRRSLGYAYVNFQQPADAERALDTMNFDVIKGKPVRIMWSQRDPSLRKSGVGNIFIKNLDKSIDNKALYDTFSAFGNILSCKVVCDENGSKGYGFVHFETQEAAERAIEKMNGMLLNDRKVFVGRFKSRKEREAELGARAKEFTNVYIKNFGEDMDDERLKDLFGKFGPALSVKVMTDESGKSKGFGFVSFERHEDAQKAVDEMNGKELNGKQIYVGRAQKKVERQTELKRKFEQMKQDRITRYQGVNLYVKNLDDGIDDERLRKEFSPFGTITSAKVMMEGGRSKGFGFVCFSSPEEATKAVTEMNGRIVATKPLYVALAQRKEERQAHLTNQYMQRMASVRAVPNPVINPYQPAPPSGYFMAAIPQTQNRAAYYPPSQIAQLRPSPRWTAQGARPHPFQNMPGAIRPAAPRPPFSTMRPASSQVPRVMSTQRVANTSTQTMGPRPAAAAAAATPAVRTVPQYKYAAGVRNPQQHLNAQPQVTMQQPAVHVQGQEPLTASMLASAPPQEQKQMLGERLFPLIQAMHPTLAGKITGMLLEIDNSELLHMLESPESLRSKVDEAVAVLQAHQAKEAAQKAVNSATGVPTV", "assay": "blockers of PABP interaction with poly(A) – biochemical, fluorescence polarization, […] (AID 2014)"}, "[8]": {"target": "T4, Polyadenylate-binding protein 1", "assay": "PABP inhibition in translation initiation, SAR follow-up (AID 435018)", "format": "functional"}, "[9]": {"target": "T3, Eukaryotic translation initiation factor 4H", "assay": "eIF4H binding inhibition – biochemical, uHTS, fluorescence polarization, translation initiation inhibitor project, primary screen (AID 2012)"}}, "note": "Active and inactive are the calls of the source. Cut-off read from the data, not from the text of the source, for most assays here: actives have a measured IC50 and inactives only a lower limit.", "data": [{"smiles": "CN(C)CCOc1ccc(-c2c(-c3ccccc3)sc3ccccc23)cc1", "values": [{"measurement": "IC50", "setting": "[1]", "result": "> 20 µM (inactive)"}, {"measurement": "AC50", "setting": "INS1", "result": "6.82 µM (active)"}, {"measurement": "AC50", "setting": "[2]", "result": "2.93 µM (active)"}, {"measurement": "EC50", "setting": "Integrin alpha-4", "result": "> 30 µM (inactive)"}, {"measurement": "EC50", "setting": "Melanocortin receptor 4", "result": "> 89.2 µM (inactive)"}]}, {"smiles": "Cn1c2ccccc2c(=O)n1-c1ccccc1", "values": [{"measurement": "IC50", "setting": "Hexokinase", "result": "> 25 µM (inactive)"}]}, {"smiles": "O=C(CSc1n[nH]c(-c2ccccc2Cl)n1)Nc1ccccc1F", "values": [{"measurement": "IC50", "setting": "[3]", "result": "4.7 µM (active)"}, {"measurement": "IC50", "setting": "[4]", "result": "> 100 µM (not active)"}, {"measurement": "IC50", "setting": "[5]", "result": "> 100 µM (inactive)"}]}, {"smiles": "COC(=O)c1c(Sc2ccccc2)c2ccccc2n1C", "values": [{"measurement": "IC50", "setting": "[6]", "result": "4.23 µM (active)"}, {"measurement": "IC50", "setting": "[7]", "result": "2.76 µM (active)"}, {"measurement": "IC50", "setting": "[8]", "result": "13.8 µM (active)"}, {"measurement": "IC50", "setting": "[9]", "result": "> 100 µM (inactive)"}]}]}
